Assays:
[1] = Clearance in rat liver microsomes; format: ADME, Microsome; settings: read-out: CLH
[2] = Oral bioavailability in dog at 0.5 mg/kg; format: ADME, organism-based, Canis lupus familiaris; settings: in vivo
[3] = target: Serine/threonine-protein kinase MRCK alpha (Homo sapiens, UniProt Q5VT25); assay: Inhibition of recombinant human His-tagged MRCKalpha catalytic domain (1 to 473 residues) expressed in baculovirus expression system using serine/threonine-13 peptide as substrate incubated for 60 mins in presence of ATP by Z'-LYTE assay
[4] = target: Calcium/calmodulin-dependent protein kinase type II subunit alpha (Homo sapiens, UniProt Q9UQM7); assay: Inhibition of recombinant full length human His-tagged CAMK2alpha expressed in baculovirus expression system using serine/threonine-4 peptide as substrate incubated for 60 mins in presence of ATP by Z'-LYTE assay
[5] = target: Serine/threonine-protein kinase BRSK1 (Homo sapiens, UniProt Q8TDC3); assay: Inhibition of recombinant GST-tagged human BRSK1 expressed in baculovirus expression system using Ser/Thr-21 as substrate after 1 hr in presence of ATP by Z'-LYTE assay
[6] = target: Beta-adrenergic receptor kinase 1 (Homo sapiens, UniProt P25098); assay: Inhibition of recombinant full length human His-tagged GRK2 expressed in baculovirus expression system using serine/threonine-16 peptide as substrate incubated for 60 mins in presence of ATP by Z'-LYTE assay
[7] = target: G protein-coupled receptor kinase 4 (Homo sapiens, UniProt P32298); assay: Inhibition of recombinant full length human GST-tagged GRK4 expressed in baculovirus expression system using serine/threonine-16 peptide as substrate incubated for 60 mins in presence of ATP by Z'-LYTE assay
[8] = target: MAP kinase-activated protein kinase 3 (Homo sapiens, UniProt Q16644); assay: Inhibition of recombinant His-tagged human full length MAPKAPK3 expressed in baculovirus expression system using Ser/Thr-04 peptide as substrate after 1 hr in presence of ATP by Z'LYTE assay
[9] = target: Platelet-activating factor receptor (Homo sapiens) (UniProt P25105); assay: Inhibition of human PAF at 10 uM relative to control
[10] = target: Neuropeptide Y receptor type 2 (Homo sapiens) (UniProt P49146); assay: Displacement of [[125I]peptide YY from full length human KAN-TS cell membrane derived Y2 neuropeptide receptor at 10 uM measured after 120 mins by radiometric scintillation analysis relative to control
[11] = target: Melanocortin receptor 4 (Homo sapiens) (UniProt P32245); assay: Displacement of [125I]NDP-alpha-MSH from full length human recombinant MC4 receptor expressed in HEK293 cells at 10 uM measured after 120 mins by radiometric scintillation analysis relative to control; format: cell-based
[12] = target: Melanocortin receptor 3 (Homo sapiens) (UniProt P41968); assay: Displacement of [125I]NDP-alpha-MSH from full length human recombinant MC3 receptor expressed in HEK293 cells at 10 uM measured after 60 mins by radiometric scintillation analysis relative to control; format: cell-based
[13] = target: Cysteinyl leukotriene receptor 2 (Homo sapiens) (UniProt Q9NS75); assay: Inhibition of human CYSLt2 receptor at 10 uM relative to control
MAO-B = MAO-B (Homo sapiens, UniProt P27338); assay: Inhibition of recombinant full-length human MAO-B expressed in insect cells at 10 uM using kynuramine as substrate after 60 mins by spectrophotometric analysis relative to control; settings: probe kynuramine
[14] = target: Cyclin-dependent kinase 5/CDK5 activator 1 (Homo sapiens, UniProt Q00535); assay: Inhibition of recombinant full length human His-tagged CDK5/p35 expressed in baculovirus expression system using serine/threonine-12 peptide as substrate incubated for 60 mins in presence of ATP by Z'-LYTE assay
Ephrin type-A receptor 5 = Ephrin type-A receptor 5 (Homo sapiens, UniProt P54756); assay: Inhibition of recombinant human GST-tagged EPHA5 cytoplasmic domain expressed in baculovirus expression system using tyrosine-01 peptide as substrate incubated for 60 mins in presence of ATP by Z'-Lyte assay
[15] = target: Fibroblast growth factor receptor 3 (Homo sapiens, UniProt P22607, K650E); assay: Inhibition of recombinant N-terminal His-tagged human FGFR3 K650E mutant (398 to 806 residues) cytoplasmic domain expressed in baculovirus expression system using Tyr 04 peptide as substrate after 1 hr in presence of ATP by Z'-LYTE assay
[16] = target: Inhibitor of nuclear factor kappa-B kinase subunit beta (Homo sapiens, UniProt O14920); assay: Inhibition of recombinant human full-length GST-tagged IKBKB expressed in baculovirus expression system using FRET-labeled Ser/Thr 05 peptide as substrate measured after 1 hr in presence of ATP by Z'-lyte assay
[17] = target: Maternal embryonic leucine zipper kinase (Homo sapiens, UniProt Q14680); assay: Inhibition of recombinant human GST-tagged MELK catalytic domain expressed in baculovirus expression system using serine/threonine-17 peptide as substrate incubated for 60 mins in presence of ATP by Z'-LYTE assay
[18] = target: Hepatocyte growth factor receptor (Homo sapiens, UniProt P08581); assay: Inhibition of human recombinant His-tagged cMET cytoplasmic domain expressed in baculovirus expression system using tyrosine 6 peptide as substrate after 60 mins in presence of ATP FRET based Z'-LYTE assay
[19] = target: Serine/threonine-protein kinase Nek9 (Homo sapiens, UniProt Q8TD19); assay: Inhibition of recombinant human GST-tagged NEK9 catalytic domain (347 to 732 residues) expressed in baculovirus expression system using serine/threonine-7 peptide as substrate incubated for 60 mins in presence of ATP by Z'-LYTE assay
[20] = target: Serine/threonine-protein kinase D2 (Homo sapiens, UniProt Q9BZL6); assay: Inhibition of recombinant full length human GST-tagged PRKD2 expressed in baculovirus expression system using serine/threonine-01 peptide as substrate incubated for 60 mins in presence of ATP by Z'-LYTE assay
[21] = target: Proto-oncogene tyrosine-protein kinase receptor Ret (Homo sapiens, UniProt P07949); assay: Inhibition of recombinant human GST-tagged RET cytoplasmic domain expressed in baculovirus expression system using tyr02 peptide as substrate incubated for 60 mins in presence of ATP by Z'-LYTE assay
[22] = target: Ribosomal protein S6 kinase alpha-2 (Homo sapiens, UniProt Q15349); assay: Inhibition of recombinant full length human GST-tagged RPS6KA2 expressed in insect expression system using Ser/Thr 06 peptide as substrate incubated for 60 mins in presence of ATP by Z'-LYTE assay
[23] = target: Ribosomal protein S6 kinase alpha-6 (Homo sapiens, UniProt Q9UK32); assay: Inhibition of recombinant full length human N-terminal GST-tagged RPS6KA6 expressed in baculovirus expression system using ser/Thr20 peptide as substrate incubated for 60 mins in presence of ATP by Z'-LYTE assay
[24] = target: Tyrosine-protein kinase ZAP-70 (Homo sapiens, UniProt P43403); assay: Inhibition of recombinant full length human His-tagged ZAP70 cytoplasmic domain expressed in baculovirus expression system using fluorophore-labeled tyrosine-07 peptide as substrate incubated for 60 mins in presence of ATP by Z'-LYTE assay

Cyclin-dependent kinase 5/CDK5 activator 1, sequence (Q00535 whole entry, the tested form may be a part): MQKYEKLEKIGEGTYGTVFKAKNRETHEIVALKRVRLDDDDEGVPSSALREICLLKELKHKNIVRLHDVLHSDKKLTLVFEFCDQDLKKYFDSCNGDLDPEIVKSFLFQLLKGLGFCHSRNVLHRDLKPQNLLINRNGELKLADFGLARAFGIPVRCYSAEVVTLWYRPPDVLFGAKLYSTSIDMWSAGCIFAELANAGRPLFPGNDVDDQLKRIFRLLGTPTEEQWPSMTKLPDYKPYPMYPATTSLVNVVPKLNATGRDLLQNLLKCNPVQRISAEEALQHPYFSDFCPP
Cyclin-dependent kinase 5/CDK5 activator 1, sequence (Q15078 whole entry, further chain, the tested form may be a part): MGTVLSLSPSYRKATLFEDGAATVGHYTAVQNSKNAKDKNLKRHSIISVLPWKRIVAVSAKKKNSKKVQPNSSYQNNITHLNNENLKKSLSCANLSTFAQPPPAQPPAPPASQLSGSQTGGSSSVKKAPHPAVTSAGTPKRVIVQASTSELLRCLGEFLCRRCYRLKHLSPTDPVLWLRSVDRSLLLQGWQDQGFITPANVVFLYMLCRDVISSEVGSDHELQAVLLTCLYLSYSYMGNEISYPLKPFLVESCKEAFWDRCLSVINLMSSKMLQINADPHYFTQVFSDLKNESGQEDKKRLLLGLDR
Ribosomal protein S6 kinase alpha-6, sequence (Q9UK32 whole entry, the tested form may be a part): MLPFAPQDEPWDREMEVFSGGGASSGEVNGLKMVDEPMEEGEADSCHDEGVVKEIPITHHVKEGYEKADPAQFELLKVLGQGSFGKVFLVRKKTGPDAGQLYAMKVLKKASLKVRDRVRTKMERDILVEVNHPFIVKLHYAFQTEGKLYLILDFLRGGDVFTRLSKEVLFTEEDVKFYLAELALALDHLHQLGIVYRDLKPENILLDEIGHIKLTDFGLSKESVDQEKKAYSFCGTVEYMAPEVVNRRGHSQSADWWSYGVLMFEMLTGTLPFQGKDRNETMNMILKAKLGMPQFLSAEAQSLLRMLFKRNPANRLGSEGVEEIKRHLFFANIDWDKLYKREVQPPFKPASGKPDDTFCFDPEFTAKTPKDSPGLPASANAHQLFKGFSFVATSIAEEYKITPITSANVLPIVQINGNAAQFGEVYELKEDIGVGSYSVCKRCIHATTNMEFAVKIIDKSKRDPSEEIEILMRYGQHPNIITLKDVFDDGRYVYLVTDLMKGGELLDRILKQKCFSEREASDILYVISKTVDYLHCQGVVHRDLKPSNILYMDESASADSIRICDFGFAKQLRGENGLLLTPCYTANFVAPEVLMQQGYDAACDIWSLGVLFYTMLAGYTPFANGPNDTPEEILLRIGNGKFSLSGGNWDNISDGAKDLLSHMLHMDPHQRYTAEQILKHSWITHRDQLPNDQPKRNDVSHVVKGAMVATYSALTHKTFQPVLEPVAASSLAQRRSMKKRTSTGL
Maternal embryonic leucine zipper kinase, sequence (Q14680 whole entry, the tested form may be a part): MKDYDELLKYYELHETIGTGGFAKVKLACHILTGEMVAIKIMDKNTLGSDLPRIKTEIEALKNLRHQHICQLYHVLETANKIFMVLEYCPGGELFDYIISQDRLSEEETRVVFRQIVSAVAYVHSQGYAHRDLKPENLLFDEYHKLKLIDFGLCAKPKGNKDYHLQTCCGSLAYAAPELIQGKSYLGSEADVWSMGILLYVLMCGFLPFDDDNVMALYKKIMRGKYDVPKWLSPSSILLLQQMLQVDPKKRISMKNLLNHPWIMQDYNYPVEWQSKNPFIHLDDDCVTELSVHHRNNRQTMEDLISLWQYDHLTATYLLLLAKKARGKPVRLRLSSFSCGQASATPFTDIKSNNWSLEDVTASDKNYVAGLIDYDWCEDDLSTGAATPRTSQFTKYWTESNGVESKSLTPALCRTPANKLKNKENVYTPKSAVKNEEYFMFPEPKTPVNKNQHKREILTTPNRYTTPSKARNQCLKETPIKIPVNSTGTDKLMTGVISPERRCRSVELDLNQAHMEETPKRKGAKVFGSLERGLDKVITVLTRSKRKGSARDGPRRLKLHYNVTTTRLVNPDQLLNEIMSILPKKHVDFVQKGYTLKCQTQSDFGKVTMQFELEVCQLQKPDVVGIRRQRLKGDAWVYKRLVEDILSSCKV
Platelet-activating factor receptor (Homo sapiens), sequence (P25105 whole entry): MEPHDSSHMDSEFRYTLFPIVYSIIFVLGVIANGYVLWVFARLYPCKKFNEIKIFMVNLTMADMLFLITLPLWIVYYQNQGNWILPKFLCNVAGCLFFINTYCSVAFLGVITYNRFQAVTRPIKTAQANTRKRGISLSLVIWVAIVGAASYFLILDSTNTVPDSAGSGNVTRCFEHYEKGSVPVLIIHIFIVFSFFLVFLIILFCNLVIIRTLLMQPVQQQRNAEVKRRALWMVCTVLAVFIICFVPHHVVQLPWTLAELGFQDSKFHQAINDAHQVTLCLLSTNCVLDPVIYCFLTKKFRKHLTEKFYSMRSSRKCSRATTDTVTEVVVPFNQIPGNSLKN
Serine/threonine-protein kinase MRCK alpha, sequence (Q5VT25 whole entry, the tested form may be a part): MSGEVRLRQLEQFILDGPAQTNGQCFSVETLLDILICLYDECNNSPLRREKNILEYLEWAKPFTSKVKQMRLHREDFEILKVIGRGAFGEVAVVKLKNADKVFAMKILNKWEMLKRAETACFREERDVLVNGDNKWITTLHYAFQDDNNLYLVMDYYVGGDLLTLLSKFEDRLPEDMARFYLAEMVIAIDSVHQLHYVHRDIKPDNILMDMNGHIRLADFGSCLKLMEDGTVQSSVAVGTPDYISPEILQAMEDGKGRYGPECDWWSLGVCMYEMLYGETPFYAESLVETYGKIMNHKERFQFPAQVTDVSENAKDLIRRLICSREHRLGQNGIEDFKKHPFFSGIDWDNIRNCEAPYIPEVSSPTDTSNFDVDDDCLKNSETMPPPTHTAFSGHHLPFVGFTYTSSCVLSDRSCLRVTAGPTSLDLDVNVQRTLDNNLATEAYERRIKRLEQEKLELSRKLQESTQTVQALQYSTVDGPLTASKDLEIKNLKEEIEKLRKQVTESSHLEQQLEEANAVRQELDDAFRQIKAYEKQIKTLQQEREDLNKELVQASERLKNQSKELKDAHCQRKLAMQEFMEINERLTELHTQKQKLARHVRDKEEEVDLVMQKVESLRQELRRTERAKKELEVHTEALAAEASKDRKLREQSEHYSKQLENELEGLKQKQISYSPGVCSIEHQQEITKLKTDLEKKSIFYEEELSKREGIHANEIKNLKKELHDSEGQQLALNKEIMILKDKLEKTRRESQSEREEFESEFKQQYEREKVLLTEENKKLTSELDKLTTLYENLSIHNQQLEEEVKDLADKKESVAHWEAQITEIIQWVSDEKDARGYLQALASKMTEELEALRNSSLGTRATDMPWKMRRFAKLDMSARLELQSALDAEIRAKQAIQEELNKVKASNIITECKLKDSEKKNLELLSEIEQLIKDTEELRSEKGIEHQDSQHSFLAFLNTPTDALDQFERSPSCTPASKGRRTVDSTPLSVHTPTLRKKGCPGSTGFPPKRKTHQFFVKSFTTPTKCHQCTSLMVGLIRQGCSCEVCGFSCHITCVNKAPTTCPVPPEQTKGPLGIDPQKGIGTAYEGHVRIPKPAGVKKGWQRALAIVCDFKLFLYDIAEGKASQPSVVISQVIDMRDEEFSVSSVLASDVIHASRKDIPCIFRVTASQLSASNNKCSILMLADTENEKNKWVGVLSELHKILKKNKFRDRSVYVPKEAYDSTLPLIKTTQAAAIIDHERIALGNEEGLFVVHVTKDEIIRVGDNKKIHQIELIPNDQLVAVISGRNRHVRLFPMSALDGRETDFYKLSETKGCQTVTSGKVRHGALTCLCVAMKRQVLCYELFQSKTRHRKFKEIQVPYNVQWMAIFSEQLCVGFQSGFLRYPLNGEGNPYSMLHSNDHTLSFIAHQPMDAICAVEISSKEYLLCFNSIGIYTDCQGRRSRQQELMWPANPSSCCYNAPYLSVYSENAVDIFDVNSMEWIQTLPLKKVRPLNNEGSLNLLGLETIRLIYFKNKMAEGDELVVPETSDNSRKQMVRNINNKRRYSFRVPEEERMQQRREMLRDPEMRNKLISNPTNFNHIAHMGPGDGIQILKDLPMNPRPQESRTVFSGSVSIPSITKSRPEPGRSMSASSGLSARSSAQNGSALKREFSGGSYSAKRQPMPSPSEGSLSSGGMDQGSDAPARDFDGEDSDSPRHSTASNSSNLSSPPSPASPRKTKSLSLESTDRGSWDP
Inhibitor of nuclear factor kappa-B kinase subunit beta, sequence (O14920 whole entry, the tested form may be a part): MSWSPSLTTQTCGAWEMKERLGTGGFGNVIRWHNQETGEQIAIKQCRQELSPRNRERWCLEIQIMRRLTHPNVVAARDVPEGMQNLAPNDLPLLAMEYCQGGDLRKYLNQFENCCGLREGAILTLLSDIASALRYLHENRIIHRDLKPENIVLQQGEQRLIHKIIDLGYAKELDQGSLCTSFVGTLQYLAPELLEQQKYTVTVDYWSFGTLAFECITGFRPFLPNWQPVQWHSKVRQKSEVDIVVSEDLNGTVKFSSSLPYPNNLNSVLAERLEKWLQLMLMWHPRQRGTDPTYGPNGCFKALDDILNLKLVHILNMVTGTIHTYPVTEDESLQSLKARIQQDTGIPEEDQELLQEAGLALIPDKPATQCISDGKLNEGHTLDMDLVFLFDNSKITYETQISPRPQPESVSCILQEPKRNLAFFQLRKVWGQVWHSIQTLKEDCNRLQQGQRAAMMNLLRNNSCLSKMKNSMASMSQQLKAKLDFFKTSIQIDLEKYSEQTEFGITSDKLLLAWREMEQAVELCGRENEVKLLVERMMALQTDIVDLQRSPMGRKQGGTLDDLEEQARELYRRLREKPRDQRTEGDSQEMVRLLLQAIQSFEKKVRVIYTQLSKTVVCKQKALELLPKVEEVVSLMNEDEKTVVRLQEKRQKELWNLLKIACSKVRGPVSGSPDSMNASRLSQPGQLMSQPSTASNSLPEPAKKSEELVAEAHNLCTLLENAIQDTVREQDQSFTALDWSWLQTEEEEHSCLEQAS

Question: Which results are given for `C[C@@H]1C[C@H]1C(=O)N1CCN(c2cnc(C#N)c(-c3cnn(C)c3)n2)C[C@H]1C`?
Answer: CLint scaled [1]: 2.82 L/h/kg; bioavailability [2]: 100%; IC50 [3]: > 100 µM; IC50 [4]: > 100 µM; IC50 [5]: > 100 µM; IC50 [6]: > 100 µM; IC50 [7]: 34.7 µM; IC50 [8]: 23.5 µM; inhibition [9]: -5%; inhibition [10]: -2%; inhibition [11]: 5%; inhibition [12]: 2%; inhibition [13]: 15%; inhibition at 1 h, 10 µM (MAO-B): 11%; IC50 [14]: > 100 µM; IC50 (Ephrin type-A receptor 5): > 100 µM; IC50 [15]: > 100 µM; IC50 [16]: > 100 µM; IC50 [17]: > 100 µM; IC50 [18]: > 100 µM; IC50 [19]: > 100 µM; IC50 [20]: > 100 µM; IC50 [21]: > 100 µM; IC50 [22]: > 100 µM; IC50 [23]: > 100 µM; IC50 [24]: > 100 µM

From ChEMBL document CHEMBL4602617, “Discovery and optimization of heteroaryl piperazines as potent and selective PI3Kδ inhibitors” (Bioorg Med Chem Lett, 2020)
